Reference: patent US20020013306A1, “TERPYRIDINE-PLATINUM(II) COMPLEXES” (priority 1996, published 2002)

Tests used:
Format in all cases: cell-based
[1] = system: CH1 human ovarian carcinoma cell line; test: 96 h growth inhibition, sulforhodamine B assay, CH1; settings: 96 h exposure, v = variable (mean)
[2] = system: CH1cis^R human ovarian carcinoma cell line (cisplatin resistant); test: 96 h growth inhibition, sulforhodamine B assay, CH1cisR; settings: for IC50: 96 h exposure, growth inhibition, v = variable (mean); for RF resistance factor: IC50 resistant line/IC50 parent line: CH1cis^R / CH1
[3] = system: CH1dox^R human ovarian carcinoma cell line (doxorubicin resistant); test: 96 h growth inhibition, sulforhodamine B assay, CH1doxR; settings: for IC50: 96 h exposure, growth inhibition; for RF resistance factor: IC50 resistant line/IC50 parent line: CH1dox^R / CH1
[4] = system: A2780 human ovarian carcinoma cell line; test: 96 h growth inhibition, sulforhodamine B assay, A2780; settings: 96 h exposure, v = variable (mean)
[5] = system: A2780cis^R human ovarian carcinoma cell line (cisplatin resistant); test: 96 h growth inhibition, sulforhodamine B assay, A2780cisR; settings: for IC50: 96 h exposure, growth inhibition, v = variable (mean); for RF resistance factor: IC50 resistant line/IC50 parent line: A2780cis^R / A2780
[6] = system: SKOV3 human ovarian carcinoma cell line; test: 96 h growth inhibition, sulforhodamine B assay, SKOV3; settings: 96 h exposure, v = variable (mean)
T. cruzi (MHOM/BR/00/Y) = test: Trypanosoma cruzi in mouse peritoneal macrophages
Description: Trypanosoma cruzi: […] Drug activity was determined from the % of infected macrophages in treated cultures. Nifurtimox was used as the positive control.

[7] = system: T. brucei (S427) bloodstream trypomastigotes; test: Trypanosoma brucei bloodstream trypomastigote culture

| Compound | IC50 [1] [µM] | IC50 [2] [µM] | RF resistance factor: IC50 resistant line/IC50 parent line [2] | IC50 [3] [µM] | RF resistance factor: IC50 resistant line/IC50 parent line [3] | IC50 [4] [µM] | IC50 [5] [µM] | RF resistance factor: IC50 resistant line/IC50 parent line [5] | IC50 [6] [µM] | % Inhibition, Trypanosoma cruzi (T. cruzi (MHOM/BR/00/Y); 1 μM) [%] | % Inhibition, Trypanosoma brucei ([7]; 0.03 μM) [%] | % Inhibition, Trypanosoma brucei ([7]; 0.1 μM) [%] | % Inhibition, Trypanosoma brucei ([7]; 0.3 μM) [%] | % Inhibition, Trypanosoma brucei ([7]; 1 μM) [%] | % Inhibition, Trypanosoma brucei ([7]; 3 μM) [%] | % Inhibition, Trypanosoma brucei ([7]; 10 μM) [%] | % Inhibition, Trypanosoma brucei ([7]; 30 μM) [%] | % Inhibition, Trypanosoma cruzi (T. cruzi (MHOM/BR/00/Y); 3 μM) [%] | % Inhibition, Trypanosoma cruzi (T. cruzi (MHOM/BR/00/Y); 10 μM) [%] | % Inhibition, Trypanosoma cruzi (T. cruzi (MHOM/BR/00/Y); 30 μM) [%] |
| --- | --- | --- | --- | --- | --- | --- | --- | --- | --- | --- | --- | --- | --- | --- | --- | --- | --- | --- | --- | --- |
| CC(=O)c1cc[n+]([Pt-2]23[n+]4ccccc4-c4cccc([n+]42)-c2cccc[n+]23)cc1.F[B-](F)(F)F.F[B-](F)(F)F [Compound A2] | 2.2 | 2.3 | 1.05 | 1.18 | 0.54 | 5.9 | 7.5 | 1.25 | 11.1 | 3.8 | 50.0 | 62.7 | 86.4 | 100 | 100 | 100 | 100 | – | – | – |
| CN(C)c1cc[n+]([Pt-2]23[n+]4ccccc4-c4cccc([n+]42)-c2cccc[n+]23)cc1.F[B-](F)(F)F.F[B-](F)(F)F [Compound A3] | 6.1 | 7.5 | 1.2 | 3.95 | 0.6 | 16 | 21.5 | 1.3 | 13 | 30.3 | – | 44.6 | 100 | 100 | 100 | 100 | 100 | 85.8 | 100 | 99.8 |
| F[B-](F)(F)F.F[B-](F)(F)F.Fc1cccc[n+]1[Pt-2]12[n+]3ccccc3-c3cccc([n+]31)-c1cccc[n+]12 [Compound A4] | 15.5 | 14 | 0.9 | 5.4 | 0.3 | 21.5 | > 100 | – | > 100 | 3.0 | – | – | – | 100 | 100 | 100 | 100 | 6.0 | 93 | – |
| F[B-](F)(F)F.F[B-](F)(F)F.Fc1ccc[n+]([Pt-2]23[n+]4ccccc4-c4cccc([n+]42)-c2cccc[n+]23)c1 [Compound A5] | 17 | 17 | 1 | 6.1 | 0.3 | 19.5 | > 100 | – | > 100 | 2.0 | – | – | – | 100 | 100 | 100 | 100 | 6.5 | 43.8 | – |
| F[B-](F)(F)F.F[B-](F)(F)F.c1cc[n+]2c(c1)-c1cccc3[n+]1[Pt-2]2([n+]1ccsc1)[n+]1ccccc1-3 [Compound A6] | 17 | 17 | 1 | 6.3 | 0.4 | 18.6 | > 100 | 1 | > 100 | 0 | – | 75.4 | 100 | 100 | 100 | 100 | 100 | 0 | 5.0 | – |
| CC#[N+][Pt-2]12[n+]3ccccc3-c3cccc([n+]31)-c1cccc[n+]12.F[B-](F)(F)F.F[B-](F)(F)F [Compound A8] | 18 | 18.5 | 1 | 13 | 0.7 | 50 | 100 | 2 | > 100 | 0 | – | – | – | 100 | 100 | 100 | 100 | 0 | 4.0 | 38.0 |
| F[B-](F)(F)F.F[B-](F)(F)F.[NH3+][Pt-2]12[n+]3ccccc3-c3cccc([n+]31)-c1cccc[n+]12 [Compound A12] | 5.2 | 4.5 | 0.9 | 3.75 | 0.7 | 11.5 | 23.5 | 2 | 15 | 72.3 | – | 83.8 | 98.5 | 100 | 100 | 100 | 100 | 100 | 100 | 100 |
| Cc1ccncc1.F[B-](F)(F)F.F[B-](F)(F)F.NNc1cc(-c2ccccn2)nc(-c2ccccn2)c1.[Pt+2] [R, (4-Picoline)(4′-Hydrazino-2,2′:6′,2″-Terpyridine) Platinum (II) Tetrafluoroborate] | 16 | 13.5 | 0.8 | 5.3 | 0.3 | 39 | 89 | 2.3 | 80 | 60.8 | – | 4.9 | 29.6 | 100 | 100 | 100 | 100 | 57.7 | 65.8 | 60.1 |
| CN(N)c1cc(-c2ccccn2)nc(-c2ccccn2)c1.Cc1ccncc1.F[B-](F)(F)F.F[B-](F)(F)F.[Pt+2] [S, (4-Picoline)(4′-(1 -Methylhydrazino)-2,2′:6′,2″-Terpyridine) Platinum (II) Tetra-fluoroborate] | 65 | > 100 | – | 14.5 | 0.2 | 18 | 62 | 3.4 | > 100 | 60.9 | – | 0 | 22.5 | 44.4 | 98.3 | 100 | 100 | 53.3 | 53.3 | 334 |
